In brackets after ≈: the same amount, converted by molar mass. Several values for one entry are separate records, joined by “and”; a condition that tells them apart may be missing. Equal values may be shown once.
Columns and labels:
[1] = positive charge at position 17 replacing Methionine; Wiedemann et al., 2001; cited from earlier work
S. aureus 513 = assay: Minimum inhibitory concentration assay; format: cell-based; settings: purified peptide
Description: (§1) Minimum inhibitory concentration determinations were carried out in triplicate in 96 well microtitre plates. 96 well microtitre plates were pre-treated with bovine serum albumin (BSA) prior to addition of the peptides. Briefly, to each well of the microtitre plate 200 µL of phosphate buffered saline (PBS) containing 1% (w/v) bovine serum albumin (PBS/BSA) was added and incubated at 37°C for 30 min. The wells were washed with 200 µL PBS and allowed to dry. Target strains were grown overnight in the appropriate conditions and medium, subcultured into fresh broth and allowed to grow to an OD600 of ∼0.5, diluted to a final concentration of 10^5 cfu ml^-1 in a volume of 0.2 ml. The lyophilised peptides were resuspended in the appropriate media to a stock concentration of 30 µM. Wild type nisin and nisin mutant peptides were adjusted to a 7.5 or 5.0 µM or 500 nM starting concentration and 2-fold serial dilutions of each peptide were made in 96 well plates for a total of 12 dilutions.
(§2) To confirm that the observed enhanced activity of the nisin variants was due to increased specific activity, the activity of purified peptides were assessed using classical broth-based minimum inhibitory concentration (MIC) determination assays. […] Also included were the lactic acid bacteria targets L. lactis MG1363, L. lactis spp. lactis HP, B. longum UCC44b and Lb acidophilus ATCC 4356.

S. aureus 5971 = assay: Minimum inhibitory concentration assay; format: cell-based; settings: for Specific activity (MIC): purified peptide
Description: as §1, §2

L. lactis HP [2] = assay: Minimum inhibitory concentration assay; format: cell-based; settings: for fold reduction in potency: compared to wild-type nisin A; for Specific activity (MIC): purified peptide
Description: as §1, §2

S. aureus DPC 5245 = assay: Minimum inhibitory concentration assay; format: cell-based; settings: purified peptide
Description: as §1, §2

S. aureus ST528(MRSA) = assay: Minimum inhibitory concentration assay; format: cell-based; settings: for Specific activity (MIC): S. aureus ST528(MRSA), purified peptide
Description: as §1, §2

S. aureus DPC 5247 = assay: Minimum inhibitory concentration assay; format: cell-based; settings: purified peptide
Description: as §1, §2

S. aureus 272 = assay: Minimum inhibitory concentration assay; format: cell-based; settings: for Specific activity (MIC): purified peptide
Description: as §1, §2

S. aureus DPC 5243 = assay: Minimum inhibitory concentration assay; format: cell-based; settings: purified peptide
Description: as §1, §2

S. aureus ST534(MRSA) = assay: Minimum inhibitory concentration assay; format: cell-based; settings: for Specific activity (MIC): S. aureus ST534(MRSA), purified peptide
Description: as §1, §2

S. aureus strains = assay: Minimum inhibitory concentration assay, panel of S. aureus strains; format: cell-based; settings: panel of 12 S. aureus isolates; compared to nisin A
Description: as §1, §2

L. lactis HP [3] = assay: Deferred antagonism assay; format: cell-based; settings: producing strain
Description: (§3) Mutagenesis of the nisA gene was carried out as described previously (Field et al., 2008). Briefly, saturation mutagenesis was carried out using pDF05 (pCI372-nisA) as template and using oligonucleotides containing an NNK codon in place of each native codon. PCR amplification was performed in a 50 µl reaction containing approximately 0.5 ng of target DNA (pDF05), 1 unit Phusion High-Fidelity DNA polymerase (Finnzymes, Finland), 1 mM dNTPs and 500 ng each of the appropriate forward and reverse oligonucleotide. The reaction was pre-heated at 98°C for 2 min, and then incubated for 29 cycles at 98°C for 30 s, 55°C for 15 s and 72°C for 3 min 30 s, and then finished by incubating at 72°C for 3 min 30 s. Amplified products were treated with Dpn1 (Stratagene) for 60 min at 37°C to digest template DNA and purified using the QIAquick PCR purification kit. Following transformation of E. coli Top 10 cells plasmid DNA was isolated and sequenced using primers pCI372FOR (5' […] 3') and pCI372REV (5' […] 3') to verify that mutagenesis had taken place. Approximately 150 transformants were chosen at random for each position and inoculated into 96-well plates containing GM17 chloramphenicol, incubated overnight and stored at -20°C after addition of 80% glycerol. Deferred antagonism assays were performed by replicating strains on GM17 agar plates and allowing them to grow overnight before overlaying with BHI agar (0.75% w/v agar) seeded with the appropriate indicator strain.
(§4) Previously, site-saturation mutagenesis-based strategies were used to generate strains producing bioengineered nisin derivatives in which all residues not involved in lanthionine ring formation (i.e. I1, T2, 14, S5, L6, P9, G10, K12, G14, A15, L16, M17, G18, N20, M21, K22, A24, H27, S29 130, H31, V32, S33 and K34) were each randomised to potentially all other natural amino acids, or whereby all three residues of the hinge-region (NMK) were randomised simultaneously (Rouse et al., 2012, Healy et al., 2013, Field et al., 2008). […] From this screen 76 variants of interest from the first round of screening were incorporated into a "mini-bank" for subsequent further analysis. The number of indicator strains was increased from five to thirteen to include S. uberis 43382, S. uberis DPC5344, S. dysgalactiae ATCC43078, L. lactis 303, L. cremoris KH, Lactobacillus bulgaricus NCDO2489, Lb. helveticus 2079 and Lb. acidophilus ATCC4356 (Table 1). Following this second round of screening, 6 variants of interest were deemed worthy of closer inspection. DNA sequencing of the mutated nisin gene as well as mass spectrometric analysis of the peptide produced by each strain established that these corresponded to nisin M17Q (methionine at position 17 altered to glutamine), nisin T2L (threonine 2 leucine) nisin HTK, VGA, VGV or VGT (where the hinge residues Asn-Met-Lys have been altered to His-Thr-Lys, Val-Gly-Ala, Val-Gly-Val or Val-Gly-Thr respectively). […] As a result, these derivatives were eliminated from this study, but will be the subject of further investigation as potential anti-mastitis antimicrobials. […] In the case of the derivatives nisin T2L and nisin HTK, the activity appeared reduced and equivalent to nisin A respectively (Figure 1), while improved activity was observed by both derivatives against S. agalactiae ATCC13813 and S. aureus RF122 (Table 2). On this basis, the nisin derivatives M17Q, T2L and HTK were selected for purification and specific activity assays. Purified peptides were subjected to Mass Spectrometry to confirm the correct mass in each case. In the case of T2L and HTK derivatives, the threonine remained in the unmodified form (data not shown).

S. aureus RF122 [4] = assay: Deferred antagonism assay; format: cell-based; settings: producing strain
Description: as §3, §4

L. lactis MG1363 [5] = assay: Deferred antagonism assay; format: cell-based; settings: producing strain
Description: as §3, §4

S. agalactiae ATCC13813 = assay: Deferred antagonism assay; format: cell-based; settings: producing strain
Description: as §3, §4

S. aureus 54072 = format: cell-based
Description: as §1, §2

S. aureus NCDO1499 = format: cell-based
Description: as §1, §2

S. aureus 20777 = format: cell-based
Description: as §1, §2

S. aureus RF122 [6] = format: cell-based
Description: as §1, §2

L. lactis MG1363 [7] = format: cell-based
Description: as §1, §2

[8] = tested on: Lb. acidophilus ATCC 4356; format: cell-based; settings: for Specific activity (MIC): purified peptide
Description: as §1, §2

B. longum UCC 44b = format: cell-based
Description: as §1, §2

Compound | Specific activity (MIC) (S. aureus 513) | Specific activity (MIC) (S. aureus 5971) | fold reduction in potency (L. lactis HP [2]) | Specific activity (MIC) (L. lactis HP [2]) | Specific activity (MIC) (S. aureus DPC 5245) | Specific activity (MIC) (S. aureus ST528(MRSA)) | Specific activity (MIC) (S. aureus DPC 5247) | Specific activity (MIC) (S. aureus 272) | Specific activity (MIC) (S. aureus DPC 5243) | Specific activity (MIC) (S. aureus ST534(MRSA)) | number of S. aureus strains with enhanced specific activity (S. aureus strains) | zone of inhibition (area of the zone of inhibition minus the area of the spot) (L. lactis HP [3]) | zone of inhibition (area of the zone of inhibition minus the area of the spot) (S. aureus RF122 [4]) | zone of inhibition (area of the zone of inhibition minus the area of the spot) (L. lactis MG1363 [5]) | zone of inhibition (area of the zone of inhibition minus the area of the spot) (S. agalactiae ATCC13813) | fold reduction in specific activity compared to wild type nisin A [8] | Specific activity (MIC) [8] | fold decreased activity compared to wild type peptide (B. longum UCC 44b) | also measured
Nisin Z M17K |  |  |  |  |  |  |  |  |  |  |  |  |  |  |  |  |  |  | antimicrobial activity reduced to [1]: 50%
C=C(NC(=O)[C@@H](NC(=O)[C@H](Cc1c[nH]cn1)NC(=O)[C@@H](NC(=O)[C@H](CO)NC(=O)[C@@H]1CS[C@@H](C)[C@H]2NC(=O)[C@H](C)NC(=O)[C@H](NC(=O)[C@H](CCCCN)NC(=O)[C@@H](NC(=O)[C@H](Cc3c[nH]cn3)NC(=O)[C@@H]3CS[C@@H](C)[C@@H](NC(=O)[C@H](CCCCN)NC(=O)[C@@H]4CS[C@@H](C)[C@@H](NC(=O)[C@@H]5CSC[C@@H](NC(=O)/C(=C/C)NC(=O)[C@@H](N)[C@@H](C)CC)C(=O)N[C@@H]([C@@H](C)CC)C(=O)NC(=C)C(=O)N[C@@H](CC(C)C)C(=O)N5)C(=O)N5CCC[C@H]5C(=O)NCC(=O)N4)C(=O)NCC(=O)N[C@@H](C)C(=O)N[C@@H](CC(C)C)C(=O)N[C@@H](CCSC)C(=O)NCC(=O)N3)[C@@H](C)O)[C@H](C)SC[C@H](NC2=O)C(=O)N[C@@H](Cc2c[nH]cn2)C(=O)N1)[C@@H](C)CC)C(C)C)C(=O)N[C@@H](CCCCN)C(=O)O [HTK, nisin HTK] | 6 Mg/L and 1.875 µM | 12.57 Mg/L and 3.75 µM | 2 fold | 0.4 Mg/L and 0.125 µM | 1 Mg/L and 0.312 µM | 0.25 Mg/L and 0.078 µM | 1 Mg/L and 0.312 µM | 6 Mg/L and 1.875 µM | 1 Mg/L and 0.312 µM | 1 Mg/L and 0.312 µM | 6 | 230.58 ± 6.71 mm2 | 106.66 ± 3.00 mm2 | 137.70 ± 5.40 mm2 | 148.14 ± 3.66 mm2 | 4 fold | 0.12 Mg/L and 0.044 µM | 4 fold | MIC (S. aureus 54072): 0.25 µg/mL (≈ 0.0747 µM); MIC (S. aureus NCDO1499): 0.03 µg/mL (≈ 0.00896 µM); MIC (S. aureus 20777): 0.125 µg/mL (≈ 0.0373 µM); MIC (S. aureus RF122 [6]): 1 µg/mL (≈ 0.299 µM); MIC (L. lactis MG1363 [7]): 0.4 µg/mL (≈ 0.12 µM); MIC [8]: 0.12 µg/mL (≈ 0.0359 µM); MIC (B. longum UCC 44b): 0.24 µg/mL (≈ 0.0717 µM)
C=C(NC(=O)[C@@H](NC(=O)[C@H](Cc1c[nH]cn1)NC(=O)[C@@H](NC(=O)[C@H](CO)NC(=O)[C@@H]1CS[C@@H](C)[C@H]2NC(=O)[C@H](C)NC(=O)[C@H](NC(=O)[C@H](CCCCN)NC(=O)[C@H](CCSC)NC(=O)[C@H](CC(N)=O)NC(=O)[C@@H]3CS[C@@H](C)[C@@H](NC(=O)[C@H](CCCCN)NC(=O)[C@@H]4CS[C@@H](C)[C@@H](NC(=O)[C@@H]5CSC[C@@H](NC(=O)[C@H](CC(C)C)NC(=O)[C@@H](N)[C@@H](C)CC)C(=O)N[C@@H]([C@@H](C)CC)C(=O)NC(=C)C(=O)N[C@@H](CC(C)C)C(=O)N5)C(=O)N5CCC[C@H]5C(=O)NCC(=O)N4)C(=O)NCC(=O)N[C@@H](C)C(=O)N[C@@H](CC(C)C)C(=O)N[C@@H](CCSC)C(=O)NCC(=O)N3)[C@H](C)SC[C@H](NC2=O)C(=O)N[C@@H](Cc2c[nH]cn2)C(=O)N1)[C@@H](C)CC)C(C)C)C(=O)N[C@@H](CCCCN)C(=O)O [T2L, nisin T2L] | 3 Mg/L and 0.937 µM | 1.5 Mg/L and 0.468 µM | 2 fold | 0.4 Mg/L and 0.125 µM | 0.5 Mg/L and 0.156 µM | 0.125 Mg/L and 0.039 µM | 0.5 Mg/L and 0.156 µM | 0.75 Mg/L and 0.234 µM | 0.5 Mg/L and 0.156 µM | 0.25 Mg/L and 0.078 µM | 9 | 134.12 ± 19.00 mm2 | 100.05 ± 14.96 mm2 | 80.11 ± 12.18 mm2 | 194.44 ± 6.22 mm2 | 4 fold | 0.12 Mg/L and 0.044 µM | 2 fold | fold improved activity (S. aureus 5971; compared to nisin A): 16 fold; fold enhanced activity (S. aureus ST528(MRSA); S. aureus ST528 (MRSA), compared to nisin A): 4 fold; fold enhanced activity (S. aureus 272; compared to nisin A): 4 fold; fold enhanced activity (S. aureus ST534(MRSA); S. aureus ST 534 (MRSA), compared to nisin A): 4 fold

Source: patent EP3822285A1, “VARIANT NISIN PEPTIDES” (University College Cork-National University of Ireland, Cork, priority 2019, dated 2021)
